Results from patent US9073863B2, “Cyanoquinoline compounds having activity in correcting mutant-CFTR processing and increasing ion transport and uses thereof” (The Regents of the University of California, priority 2011, dated 2015).

Columns and labels:
[1] = target: T1, ΔF508-CFTR (Homo sapiens, UniProt P13569, DEL508-508); assay: Corrector assay, YFP fluorescence plate reader iodide influx in ΔF508-CFTR expressing FRT cells; assay type: cell-based; conditions: for Corrector Vmax / EC50 / Corrector EC50: 18-24 h with compound at 37° C., forskolin 20 μM + genistein 50 μM; for corrector and potentiator activities, in words: concentration-dependence in corrector and potentiator I− influx assays (FIG. 2, FIG. 7); for corrector activity, comparison in words: propylene tether, methoxy position on arylamide
T1 construct: expressed in transfected cells; host or cells: Fischer rat thyroid (FRT) epithelial cells, stably transfected
Experimental: (§1) Screening procedures. Screening of compounds for activity was carried out using a Beckman Coulter platform equipped with FLUOstar fluorescence plate readers (Optima; BMG Labtech) with dual syringe pumps and 500±10 nm excitation and 535±15 nm emission filters (Chroma Corp.). For the corrector assay, FRT cells were grown at 37° C./5% CO2 for 18-24 h and then incubated for 18-24 h with 100 μL of medium containing test compounds (25 μM final concentration). At the time of the assay, cells were washed with PBS and then incubated for 10 min with PBS containing forskolin (20 μM) and genistein (50 μM). For the potentiator assay, FRT cells were grown at 37° C./5% CO2 for 18-24 h and then for 18-24 h at 27° C. At the time of the assay, cells were washed with PBS and then incubated for 10 min with PBS (50 μL) containing forskolin (20 μM) and test compound (0-25 μM final concentration). For both the corrector and potentiator assays, each well was assayed individually for I^− influx by recording fluorescence continuously (200 ms per point) for 2 s (baseline) and then for 12 s after rapid addition of 165 μL PBS in which 137 mM Cl^− was replaced by I^−. Initial I^− influx rate was computed by fitting the final 11.5 seconds of the data to an exponential for extrapolation of initial slope, which was normalized for background-subtracted initial fluorescence. All compound plates contained negative controls and positive controls (10 μM Corr-4a for corrector assay; 50 μM genistein for potentiator assay).
(§2) Screening of about 110,000 small molecules was done to identify new ΔF508-CFTR corrector scaffolds having high correction efficiency and/or having independent potentiator activity. […] FRT cells co-expressing human ΔF508-CFTR and a halide-sensing YFP were incubated with test compounds at 37° C. (corrector assay) or 27° C. (potentiator assay). ΔF508-CFTR function was assayed in a plate reader from YFP fluorescence quenching in response to iodide addition in the presence of forskolin (20 μM) plus genistein (50 μM) for corrector assay, or forskolin (20 μM) alone for potentiator assay. As shown in FIG. 1A (left), primary screening for corrector activity was done using a cell-based fluorescence assay of iodide influx in which FRT cells expressing ΔF508-CFTR and an iodide-sensitive YFP were incubated with test compounds at 10 μM for 18-24 h prior to assay. Iodide influx was measured by addition of extracellular iodide in the presence of a potentiator (50 μM genistein) and cAMP agonist (20 μM forskolin). Compound efficacy and potency (from concentration-dependence studies) in the corrector assay were compared to reference bithiazole Corr-4a (10 μM) and to low-temperature rescued cells. Active compounds were counter-screened for potentiator activity (FIG. 1A, right) in which iodide influx was measured in the ΔF508-CFTR expressing FRT cells after low-temperature rescue and in the presence of 20 μM forskolin.
(§3) Screening procedures. Plate reader activity assay was carried out using a Beckman Coulter platform containing a robotic arm, CO2 incubator containing microplate carousel, plate-washer, liquid handling work station, bar code reader, de-lidding station, plate sealer, and FLUOstar fluorescence plate readers (Optima; BMG LABTECH Gmbh), equipped with dual syringe pumps and 500±10 nm excitation and 535±15 nm emission filters (Chroma Corp.). For the corrector assay, ΔF508-CFTR-expressing FRT cells were grown at 37° C. (90% humidity; 5% CO2) for 18-24 h and then incubated for 18-24 h with 100 μL of medium containing test compounds (0-25 μM final concentration). At the time of the assay, cells were washed with PBS and then incubated for 10 min with PBS containing forskolin (20 μM) and genistein (50 μM). For the potentiator assay, FRT cells were grown at 37° C. (90% humidity; 5% CO2) for 18-24 h and then for 18-24 h at 27° C. […]

[2] = target: T1, ΔF508-CFTR; assay: Potentiator assay, YFP fluorescence plate reader iodide influx in low-temperature rescued ΔF508-CFTR expressing FRT cells; assay type: cell-based; conditions: for EC50 / Potentiator Vmax / Potentiator EC50: forskolin 20 μM + test compound; for potentiator activity, in words: piperazine ring in place of diamino ethylene tether
Experimental: as §1, §2, §3

[3] = Table VIII, FRT cells, I− influx
[4] = Table VIII, FRT cells 18-24 h at 27° C., I− influx
[5] = Table IX, additional experiments
[6] = Table IX, additional experiments, 18-24 h at 27° C.

T1 sequence (P13569 with tags, fused parts or gaps DEL508-508): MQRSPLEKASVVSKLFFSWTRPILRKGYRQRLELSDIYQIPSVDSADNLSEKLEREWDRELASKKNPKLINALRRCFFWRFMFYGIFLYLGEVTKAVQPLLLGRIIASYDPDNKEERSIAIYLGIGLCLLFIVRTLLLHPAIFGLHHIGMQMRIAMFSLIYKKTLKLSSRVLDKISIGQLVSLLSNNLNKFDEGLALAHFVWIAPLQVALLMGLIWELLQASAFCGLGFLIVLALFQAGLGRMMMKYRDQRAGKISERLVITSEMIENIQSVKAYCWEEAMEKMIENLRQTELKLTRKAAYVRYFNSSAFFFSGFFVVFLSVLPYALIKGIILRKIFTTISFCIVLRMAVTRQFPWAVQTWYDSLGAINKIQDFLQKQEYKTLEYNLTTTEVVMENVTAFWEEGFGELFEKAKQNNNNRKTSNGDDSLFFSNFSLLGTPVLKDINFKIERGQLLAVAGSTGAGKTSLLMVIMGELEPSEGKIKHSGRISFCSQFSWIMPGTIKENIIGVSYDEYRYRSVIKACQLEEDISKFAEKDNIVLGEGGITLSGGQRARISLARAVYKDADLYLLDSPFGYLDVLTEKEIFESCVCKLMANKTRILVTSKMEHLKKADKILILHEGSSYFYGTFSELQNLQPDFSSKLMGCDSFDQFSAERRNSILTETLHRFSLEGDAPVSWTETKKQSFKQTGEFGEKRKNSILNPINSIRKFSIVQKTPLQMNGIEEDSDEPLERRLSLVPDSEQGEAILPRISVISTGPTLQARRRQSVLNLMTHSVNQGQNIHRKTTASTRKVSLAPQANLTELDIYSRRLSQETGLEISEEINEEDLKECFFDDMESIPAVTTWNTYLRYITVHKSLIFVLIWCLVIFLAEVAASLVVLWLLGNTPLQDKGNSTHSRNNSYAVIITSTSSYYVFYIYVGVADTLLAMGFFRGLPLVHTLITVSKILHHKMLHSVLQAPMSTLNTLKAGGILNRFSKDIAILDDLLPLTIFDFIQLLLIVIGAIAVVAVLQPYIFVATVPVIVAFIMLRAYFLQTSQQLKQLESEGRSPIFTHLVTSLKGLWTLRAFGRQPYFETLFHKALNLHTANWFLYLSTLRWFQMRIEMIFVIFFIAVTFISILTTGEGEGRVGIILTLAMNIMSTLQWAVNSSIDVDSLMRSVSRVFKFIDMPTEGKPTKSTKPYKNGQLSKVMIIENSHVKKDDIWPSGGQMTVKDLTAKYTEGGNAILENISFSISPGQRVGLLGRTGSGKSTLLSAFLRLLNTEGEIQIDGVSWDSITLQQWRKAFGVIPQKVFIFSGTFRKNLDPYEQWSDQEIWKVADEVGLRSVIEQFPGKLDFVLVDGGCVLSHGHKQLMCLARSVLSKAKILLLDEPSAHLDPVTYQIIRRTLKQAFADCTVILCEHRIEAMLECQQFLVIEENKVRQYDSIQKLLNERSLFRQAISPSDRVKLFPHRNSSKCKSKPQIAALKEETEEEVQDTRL

| Compound | Corrector Vmax [1, 3] | EC50 [2, 4] [µM] | Potentiator Vmax [2, 4] | further results |
| --- | --- | --- | --- | --- |
| Cc1ccc2cc(C#N)c(N3CCCN(C(=O)c4cccs4)CC3)nc2c1 | inactive | 13 | 261 µM/s | Corrector EC50 [1, 3]: inactive |
| Cc1cc(C)c2cc(C#N)c(N3CCN(C(=O)c4ccncc4)CC3)nc2c1 |  |  |  | Corrector EC50 [1, 5]: inactive; Corrector Vmax [1, 5]: inactive; Potentiator EC50 [2, 6]: inactive; Potentiator Vmax [2, 6]: inactive |
| COc1ccccc1C(=O)NCCCNc1nc2cc(C)cc(C)c2cc1C#N |  |  |  | Corrector Vmax [1, 5]: inactive; EC50 [2, 6]: 27.6 ± 2 µM; Potentiator Vmax [2, 6]: 254 µM/s |
| Cc1cc(C)c2cc(C#N)c(NCCNC(=O)c3ccccc3)nc2c1 |  |  |  | Corrector Vmax [1, 5]: inactive; EC50 [2, 6]: 10 ± 2 µM; Potentiator Vmax [2, 6]: 210 µM/s |
| COc1cccc(OC)c1C(=O)NCCNc1nc2cc(C)cc(C)c2cc1C#N |  |  |  | Corrector Vmax [1, 5]: 111 µM/s; EC50 [1, 5]: 3.7 ± 0.6 µM; EC50 [2, 6]: 11.5 ± 1 µM; Potentiator Vmax [2, 6]: 119 µM/s |
| COc1ccc(C(=O)NCCNc2nc3cc(C)cc(C)c3cc2C#N)c(OC)c1 |  |  |  | Corrector Vmax [1, 5]: 108 µM/s; EC50 [1, 5]: 4.2 ± 0.4 µM; EC50 [2, 6]: 55 ± 3.5 µM; Potentiator Vmax [2, 6]: 426 µM/s |
| Cc1cc(C)c2cc(C#N)c(NCCNC(=O)c3cnccn3)nc2c1 |  |  |  | Corrector Vmax [1, 5]: 174 µM/s; EC50 [1, 5]: 6.7 ± 1 µM; Potentiator Vmax [2, 6]: inactive |
| COc1ccc(C(=O)NCCNc2nc3c(C)cccc3cc2C#N)cc1OC [Compound 01] |  |  |  | corrector and potentiator activities, in words [1]: corrector and potentiator activities comparable to those of Compound 22 |
| COc1ccc(C(=O)NCCNc2nc3ccc(C)cc3cc2C#N)cc1OC [Compound 02] |  |  |  | corrector and potentiator activities, in words [1]: corrector and potentiator activities comparable to those of Compound 22 |
| Cc1cc(C)c2cc(C#N)c(NCCNC(=O)c3cccs3)nc2c1 [Compound 03] |  |  |  | corrector and potentiator activities, in words [1]: dual activities |
| COc1ccc(S(=O)(=O)N2CCN(c3nc4ccc(C)cc4cc3C#N)CC2)cc1 [Compound 05] |  |  |  | corrector and potentiator activities, in words [1]: dual activities |
| CCOc1ccccc1NC(=S)NCCNc1nc2c(C)cccc2cc1C#N [Compound 14] |  |  |  | corrector and potentiator activities, in words [1]: potentiator-only activity |
| COc1ccc(C(=O)NCCNc2nc3cc(C)cc(C)c3cc2C#N)cc1OC [Compound 103] |  |  |  | corrector and potentiator activities, in words [1]: both corrector and potentiator activities |
| COc1ccc(C(=O)NCCNc2nc3cc(C)cc(C)c3cc2C#N)nc1 [Compound 110] |  |  |  | corrector and potentiator activities, in words [1]: both corrector and potentiator activities |
| COc1ccccc1C(=O)N1CCN(c2nc3cc(C)cc(C)c3cc2C#N)CC1 [Compound AW1] |  |  |  | corrector and potentiator activities, in words [1]: potentiator-only activity; potentiator activity, in words [2]: significant potentiator activity |
| COc1cccc(C(=O)N2CCN(c3nc4cc(C)cc(C)c4cc3C#N)CC2)c1 [Compound AW2] |  |  |  | potentiator activity, in words [2]: significant potentiator activity |
| COc1ccc(C(=O)N2CCN(c3nc4cc(C)cc(C)c4cc3C#N)CC2)cc1 [Compound AW3] |  |  |  | corrector and potentiator activities, in words [1]: potentiator-only activity; potentiator activity, in words [2]: significant potentiator activity |
| COc1cccc(C(=O)NCCCNc2nc3cc(C)cc(C)c3cc2C#N)c1 [Compound AW8] |  |  |  | corrector activity, comparison in words [1]: greater corrector activity than Compound AW7 |
| COc1ccc(C(=O)NCCCNc2nc3cc(C)cc(C)c3cc2C#N)cc1 [Compound AW9] |  |  |  | corrector activity, comparison in words [1]: greater corrector activity than Compound AW7 |
| Cc1cc(C)c2cc(C#N)c(NCCNC(=O)c3cccnc3)nc2c1 [Compound CP5] |  |  |  | corrector and potentiator activities, in words [1]: both corrector and potentiator activities |
| COc1ccc(C(=O)NCCNc2nc3cc(C)cc(C)c3cc2C#N)cc1 [drawing 148] | 172 µM/s | 4.1 | 181 µM/s | EC50 [1, 3]: 3 µM |
| Cc1cc(C)c2cc(C#N)c(NCCNC(=O)c3ccncc3)nc2c1 [drawing 151] | 172 µM/s |  | 220 µM/s | EC50 [1, 3]: 9.1 µM |
| Cc1cc(C)c2cc(C#N)c(NCCCNC(=O)c3ccncc3)nc2c1 [drawing 163] | inactive |  |  | Corrector EC50 [1, 3]: inactive |

Further lines, with some results ahead:

| Corrector Vmax [1, 3] | EC50 [2, 4] [µM] | Potentiator Vmax [2, 4] | Compound | further results |
| --- | --- | --- | --- | --- |
| 140 µM/s | 11 | 195 µM/s | COc1ccc2nc(N3CCN(C(=O)c4ccccc4F)CC3)c(C#N)cc2c1 | EC50 [1, 3]: 4.2 µM |
| inactive | 13 | 261 µM/s | COc1ccc2nc(N3CCN(C(=O)c4ccccc4Cl)CC3)c(C#N)cc2c1 | Corrector EC50 [1, 3]: inactive |
| inactive | 5 | 235 µM/s | COc1ccc2nc(N3CCN(C(=O)c4ccccc4Br)CC3)c(C#N)cc2c1 | Corrector EC50 [1, 3]: inactive |
| 223 µM/s | 15 | 250 µM/s | COc1ccc(C(=O)NCCNc2nc3c(C)cccc3cc2C#N)cc1OC [drawing 137] | EC50 [1, 3]: 3.8 µM |
| 281 µM/s | 15 | 297 µM/s | COc1ccc(C(=O)NCCNc2nc3ccc(C)cc3cc2C#N)cc1OC [drawing 138] | EC50 [1, 3]: 3.9 µM |
| 228 µM/s | 14 | 289 µM/s | Cc1cc(C)c2cc(C#N)c(NCCNC(=O)c3cccs3)nc2c1 [drawing 139] | EC50 [1, 3]: 14 µM |
| 102 µM/s | 3.8 | 72 µM/s | COc1ccc(S(=O)(=O)N2CCN(c3nc4ccc(C)cc4cc3C#N)CC2)cc1 [drawing 140] | EC50 [1, 3]: 5 µM |
| inactive | 6 | 275 µM/s | CCOc1ccccc1NC(=S)NCCNc1nc2c(C)cccc2cc1C#N [drawing 144] | Corrector EC50 [1, 3]: inactive |
| 300 µM/s |  | 306 µM/s | COc1cccc(C(=O)NCCNc2nc3cc(C)cc(C)c3cc2C#N)c1 [drawing 146] |  |
| 114 µM/s | 2.3 | 154 µM/s | COc1ccccc1C(=O)NCCNc1nc2cc(C)cc(C)c2cc1C#N [drawing 147] |  |
| inactive |  | 80 µM/s | Cc1cc(C)c2cc(C#N)c(NCCNC(=O)c3ccccn3)nc2c1 [drawing 149] |  |
| 223 µM/s | 11 | 152 µM/s | Cc1cc(C)c2cc(C#N)c(NCCNC(=O)c3cccnc3)nc2c1 [drawing 150] | EC50 [1, 3]: 15.2 µM |
| inactive |  | 129 µM/s | COc1ccccc1C(=O)N1CCN(c2nc3cc(C)cc(C)c3cc2C#N)CC1 [drawing 152] |  |
| inactive | 1.2 | 200 µM/s | COc1cccc(C(=O)N2CCN(c3nc4cc(C)cc(C)c4cc3C#N)CC2)c1 [drawing 153] |  |
|  |  | inactive | Cc1cc(C)c2cc(C#N)c(N3CCN(C(=O)c4cccnc4)CC3)nc2c1 [drawing 156] | Potentiator EC50 [2, 4]: inactive |
|  | 6.1 | 233 µM/s | Cc1cc(C)c2cc(C#N)c(NCCCNC(=O)c3ccccn3)nc2c1 [drawing 161] |  |
